Results on 15 compounds are retold here after ChEMBL document CHEMBL5532660, “Lead Optimization of BIBR1591 To Improve Its Telomerase Inhibitory Activity: Design and Synthesis of Novel Four Chemical Series with In Silico, In Vitro, and In Vivo Preclinical Assessments” (J Med Chem, 2024).

Data set [1] addresses Telomerase reverse transcriptase (Homo sapiens) (UniProt O14746). In words: Inhibition of telomerase (unknown origin) by RT-qPCR analysis relative to control. More on the design: concentration or dose not given beside the values. As to conditions: concentration not given here.
Data set [2] has as its system Ehrlich. In words: Antitumor activity against mouse EAC cells implanted in Swiss albino mouse assessed as erythrocyte count at 5 mg/kg, ip administered for 2 weeks (reference value: 4.1 +/- 0.23 x 10^6/mm3). The format is functional.
Data set [3] deals with Ehrlich. In words: Antitumor activity against mouse EAC cells implanted in Swiss albino mouse assessed as mean corpuscular volume at 5 mg/kg, ip administered for 2 weeks (reference value: 46.78 +/- 0.43 fL). In kind it is functional.
For data set [4], the system named is Ehrlich. In words: Antitumor activity against mouse EAC cells implanted in Swiss albino mouse assessed as appearance of granulation tissue at 5 mg/kg, ip administered for 2 weeks by H and E staining based light microscopic analysis (reference value: 0 to 25%). In kind it is functional.
Data set [5] relates to Ehrlich. In words: Antitumor activity against mouse EAC cells implanted in Swiss albino mouse assessed as intact anaplastic tumor cells at 5 mg/kg, ip administered for 2 weeks by H and E staining based light microscopic analysis (reference value: 75 to 100%). In kind it is functional.
The subject of data set [6] is Ehrlich. In words: Antitumor activity against mouse EAC cells implanted in Swiss albino mouse assessed as increase in hemoglobin level at 5 mg/kg, ip administered for 2 weeks relative to control. The format is functional.
Data set [7] relates to Ehrlich. In words: Antitumor activity against mouse EAC cells implanted in Swiss albino mouse assessed as inflammatory cell infiltration at 5 mg/kg, ip administered for 2 weeks by H and E staining based light microscopic analysis (reference value: 0 to 25%). In kind it is functional.
For data set [8], the system named is Ehrlich. In words: Antitumor activity against mouse EAC cells implanted in Swiss albino mouse assessed as increase in serum SOD level at 5 mg/kg, ip administered for 2 weeks by ELISA relative to control. The format is functional.
For data set [9], the system named is Ehrlich. In words: Antitumor activity against mouse EAC cells implanted in Swiss albino mouse assessed as reduction in total platelet count at 5 mg/kg, ip administered for 2 weeks relative to control. The format is functional. Further details: scale not given: the % may be the effect or the level left.
The test system of data set [10] is Ehrlich. In words: Antitumor activity against mouse EAC cells implanted in Swiss albino mouse assessed as apoptotic cells at 5 mg/kg, ip administered for 2 weeks by H and E staining based light microscopic analysis (reference value: 25 to 50%). In kind it is functional.
Data set [11] has as its system Ehrlich. In words: Antitumor activity against mouse EAC cells implanted in Swiss albino mouse assessed as necrosis at 5 mg/kg, ip administered for 2 weeks by H and E staining based light microscopic analysis (reference value: 0 to 25%). The format is functional.
The test system of data set [12] is Ehrlich. In words: Antitumor activity against mouse EAC cells implanted in Swiss albino mouse assessed as increase in caspase-3 level in serum at 5 mg/kg, ip administered for 2 weeks by ELISA relative to control. In kind it is functional.
Data set [13] concerns Ehrlich. In words: Antitumor activity against mouse EAC cells implanted in Swiss albino mouse assessed as reduction in tumor volume at 5 mg/kg, ip administered for 2 weeks and measured on day 5, 10 and 14 relative to control. In kind it is functional. More on the design: scale not given: the % may be the effect or the level left.
For data set [14], the system named is Ehrlich. In words: Antitumor activity against mouse EAC cells implanted in Swiss albino mouse assessed as platelet count at 5 mg/kg, ip administered for 2 weeks (reference value: 963.66 +/- 29.63 x10^3/mm3). The format is functional.
In data set [15] the test system is Ehrlich. In words: Antitumor activity against mouse EAC cells implanted in Swiss albino mouse assessed as reduction in tumor weight at 5 mg/kg, ip administered for 2 weeks and measured on day 5, 10 and 14 relative to control. In kind it is functional. Further details: scale not given: the % may be the effect or the level left.
The test system of data set [16] is Ehrlich. In words: Antitumor activity against mouse EAC cells implanted in Swiss albino mouse assessed as reduction in total leukocytes count at 5 mg/kg, ip administered for 2 weeks relative to control. Further details: scale not given: the % may be the effect or the level left. In kind it is functional.
The subject of data set [17] is Ehrlich. In words: Antitumor activity against mouse EAC cells implanted in Swiss albino mouse assessed as mean corpuscular hemoglobin at 5 mg/kg, ip administered for 2 weeks (reference value: […] +/- 0.48 pg). In kind it is functional.
The test system of data set [18] is Ehrlich. In words: Antitumor activity against mouse EAC cells implanted in Swiss albino mouse assessed as reduction in TNF-alpha level at 5 mg/kg, ip administered for 2 weeks by ELISA relative to control. The format is functional. Further details: scale not given: the % may be the effect or the level left.
The test system of data set [19] is Ehrlich. In words: Antitumor activity against mouse EAC cells implanted in Swiss albino mouse assessed as hemoglobin level at 5 mg/kg, ip administered for 2 weeks (reference value: 9.25 +/- 0.26 g/dL). In kind it is functional.
Data set [20] has as its system Ehrlich. In words: Antitumor activity against mouse EAC cells implanted in Swiss albino mouse assessed as increase in erythrocyte count at 5 mg/kg, ip administered for 2 weeks relative to control. In kind it is functional.
The test system of data set [21] is Ehrlich. In words: Antitumor activity against mouse EAC cells implanted in Swiss albino mouse assessed as total leukocyte count at 5 mg/kg, ip administered for 2 weeks (reference value: 7.11 +/- 0.27 x10^3/mm3). In kind it is functional.
In a further data set the test system is A549. In words: Cytotoxicity against human A549 cells overexpressing telomerase assessed as inhibition of cell growth incubated for 48 hrs by SRB assay. The format is functional, cell-based. To be noted: A549, 48 h.
Data set [22] has as its system Huh-7. In words: Cytotoxicity against human Huh-7 cells overexpressing telomerase assessed as inhibition of cell growth incubated for 48 hrs by SRB assay. To be noted: Huh-7, 48 h. In kind it is functional, cell-based.
Another data set deals with NCI-H1299. In words: Cytotoxicity against human NCI-H1299 cells overexpressing telomerase assessed as inhibition of cell growth incubated for 48 hrs by SRB assay. As to conditions: NCI-H1299, 48 h. The format is functional, cell-based.
The test system of data set [23] is Huh-7. In words: Induction of apoptosis in human Huh-7 cells assessed as upregulation of BAX protein expression by measuring fold change by ELISA relative to control. The format is functional.
Data set [24] deals with Huh-7. In words: Induction of apoptosis in human Huh-7 cells assessed as downregulation of BCL-2 protein expression by measuring fold change by ELISA relative to control. In kind it is functional.
The next data set relates to HepG2. In words: Cytotoxicity against human HepG2 cells overexpressing telomerase assessed as inhibition of cell growth incubated for 48 hrs by SRB assay. As to conditions: HepG2, 48 h. In kind it is functional, cell-based.
For data set [25], the system named is Huh-7. In words: Induction of apoptosis in human Huh-7 cells assessed as upregulation of p53 protein expression by measuring fold change by ELISA relative to control. The format is functional.
Data set [26] can be described thus: Cytotoxicity against HSF cells assessed as reduction in cell viability upto 50 ug/ml incubated for 48 hrs by SRB assay. The format is toxicity, cell-based. To be noted: human, dose < 50 µg/ml.
The test system of another data set is NCI-H460. In words: Cytotoxicity against human NCI-H460 cells overexpressing telomerase assessed as inhibition of cell growth incubated for 48 hrs by SRB assay. The format is functional, cell-based. As to conditions: NCI-H460, 48 h.

Chain of Telomerase reverse transcriptase (Homo sapiens) (O14746 whole entry): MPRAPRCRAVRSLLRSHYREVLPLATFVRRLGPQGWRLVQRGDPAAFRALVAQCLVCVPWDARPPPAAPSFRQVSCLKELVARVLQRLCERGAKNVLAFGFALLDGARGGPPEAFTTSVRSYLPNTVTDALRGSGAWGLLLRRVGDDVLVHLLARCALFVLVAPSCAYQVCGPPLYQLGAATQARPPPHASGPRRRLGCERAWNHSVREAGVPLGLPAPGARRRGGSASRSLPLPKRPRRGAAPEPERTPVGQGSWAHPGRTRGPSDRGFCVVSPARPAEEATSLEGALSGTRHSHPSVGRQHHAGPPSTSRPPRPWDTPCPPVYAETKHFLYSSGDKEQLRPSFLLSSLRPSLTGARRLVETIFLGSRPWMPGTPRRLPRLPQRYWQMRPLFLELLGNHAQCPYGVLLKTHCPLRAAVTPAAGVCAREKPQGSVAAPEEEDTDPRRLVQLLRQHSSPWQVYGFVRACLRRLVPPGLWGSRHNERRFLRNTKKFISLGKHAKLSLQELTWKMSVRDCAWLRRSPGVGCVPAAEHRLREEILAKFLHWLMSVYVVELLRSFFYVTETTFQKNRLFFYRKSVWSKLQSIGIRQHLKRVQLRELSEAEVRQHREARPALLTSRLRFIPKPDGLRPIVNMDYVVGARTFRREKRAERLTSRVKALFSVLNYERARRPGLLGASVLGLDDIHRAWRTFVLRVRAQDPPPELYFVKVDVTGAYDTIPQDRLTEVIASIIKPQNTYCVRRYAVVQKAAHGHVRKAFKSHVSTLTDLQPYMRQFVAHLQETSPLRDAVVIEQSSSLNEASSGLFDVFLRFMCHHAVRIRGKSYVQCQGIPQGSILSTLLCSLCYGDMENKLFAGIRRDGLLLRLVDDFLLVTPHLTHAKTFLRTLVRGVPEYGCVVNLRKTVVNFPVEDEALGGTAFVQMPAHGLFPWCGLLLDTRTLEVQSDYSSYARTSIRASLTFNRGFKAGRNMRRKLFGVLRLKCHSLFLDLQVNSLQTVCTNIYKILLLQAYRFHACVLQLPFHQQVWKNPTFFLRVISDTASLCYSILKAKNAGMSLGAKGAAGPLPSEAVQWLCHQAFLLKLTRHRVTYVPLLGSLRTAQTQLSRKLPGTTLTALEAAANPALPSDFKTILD

In data set [1], `COc1ccc(NC(=O)CSc2nc(O)c(C#N)c(-c3cccnc3)n2)cc1` displayed an inhibition of 46.1%.
Same read-out and setting: under `N#Cc1c(O)nc(SCC(=O)Nc2nc3ccccc3[nH]2)nc1-c1cccnc1` stands 32.6%; under `N#Cc1c(O)nc(SCC(=O)Nc2cc(Cl)ccc2Cl)nc1-c1cccnc1`, 5.58%.
On to `COc1cccc2c1C(=O)c1c(O)c3c(c(O)c1C2=O)C[C@@](O)(C(=O)CO)C[C@@H]3O[C@H]1C[C@H](N)[C@H](O)[C@H](C)O1` [DOXORUBICIN], for which the Activity with Ehrlich [2] is recorded as 5.93 10^6/mm3; in the data set on Ehrlich [3] it was 51.14 fL; in the data set with Ehrlich [4], 0%; with Ehrlich [5], 25%; in the data set on Ehrlich [6], 21.94%; with Ehrlich [7], 0%. The Activity is recorded as 129.54% with Ehrlich [8]; 44.94% in the data set on Ehrlich [9]; 50% in the data set on Ehrlich [10]; 50% in the data set with Ehrlich [11]; 64.95% in the data set with Ehrlich [12]; 57.05% in the data set with Ehrlich [13]. Further, the Activity in the data set on Ehrlich [14] was 530.5 10^3/mm3; with Ehrlich [15] it was 62.52%; with Ehrlich [16] it was 37.27%; in the data set on Ehrlich [17], 16.43 pg; in the data set on Ehrlich [18], 64.14%; in the data set with Ehrlich [19], 11.28 g/dL. In addition, the Activity in the data set on Ehrlich [20] is 44.63%; in the data set with Ehrlich [21], 4.46 10^3/mm3.
`N#Cc1c(O)nc(SCC(=O)Nc2ccc3ccccc3c2)nc1-c1cccnc1`: in [1], the inhibition is 26%.
On to `N#Cc1c(O)nc(SCC(=O)Nc2sc3c(c2C#N)CCC3)nc1-c1cccnc1`, for which the IC50 in the data set on A549 was 90 µM; in the data set with Huh-7 [22], 25 µM; in the data set with NCI-H1299, 29 µM; in the data set on HepG2, 41 µM; with NCI-H460, 45 µM. Besides, the “fold change (FC)” value is 1.08 in the data set on Huh-7 [23], 0.8 in the data set with Huh-7 [24] and 1.07 with Huh-7 [25]. In addition, the inhibition in [1] was 58.6%. Further, the Activity entry in data set [26] was “Non-Toxic”.
With `N#Cc1c(O)nc(SCC(=O)Nc2sc3c(c2C#N)CCCC3)nc1-c1cccnc1`, the half-inhibitory concentration (IC50) in the data set with A549 amounted to 86 µM; with Huh-7 [22] it was 33 µM; in the data set with NCI-H1299, 23 µM; with HepG2 it was 18 µM; in the data set on NCI-H460, 41 µM. Also, the “fold change (FC)” value was found to be 1.14 in the data set on Huh-7 [23], 0.77 in the data set with Huh-7 [24] and 1.13 with Huh-7 [25]. In data set [1], the inhibition stood at 55.6%. In addition, the Activity result in [26] is on record as “Non-Toxic”.
`N#Cc1c(O)nc(SCC(=O)Nc2cccc([N+](=O)[O-])c2)nc1-c1cccnc1`: the inhibition in data set [1] was 28.1%.
On to `N#Cc1ccc(NC(=O)CSc2nc(O)c(C#N)c(-c3cccnc3)n2)cc1`, for which, in [1], the inhibition was 21.7%.
Same read-out and setting: the same measure for `C/C(=C\C(=O)Nc1ccccc1C(=O)O)c1ccc2ccccc2c1`: 69.6%.
The same measure, in the same setting: the same measure for `C/C(=C\C(=O)Nc1ccc(N2CCOCC2)cc1C(=O)O)c1ccc2ccccc2c1`: 51.6%; for `CC(=O)c1ccc(NC(=O)CSc2nc(O)c(C#N)c(-c3cccnc3)n2)cc1`: 30.2%; for `N#Cc1c(O)nc(SCC(=O)Nc2ccc(Cl)c(C(F)(F)F)c2)nc1-c1cccnc1`: 8.91%.
The same measure, in the same setting: under `N#Cc1c(O)nc(SCC(=O)Nc2nc3ccccc3s2)nc1-c1cccnc1` stands 32.1%; under `N#Cc1c(O)nc(SCC(=O)Nc2cccc3ccccc23)nc1-c1cccnc1`, 34.5%.
